target: LSD-1 enzyme (Homo sapiens (Human), UniProt O60341)
Protocol: LSD1 Histone Demethylase Biochemical Assay
LANCE LSD1/KDM1A demethylase assay-10 μL of 1 nM LSD-1 enzyme (ENZO BML-SE544-0050) in the assay buffer (50 mM Tris, pH 7.5, 0.01% Tween-20, 25 mM NaCl, 5 mM DTT) were preincubated for 1 hour at 25° C. with 0.8 μL compound/DMSO dotted in black 384 well polystyrene plates. […] After stopping the reactions plates were incubated for 30 minutes and read on a PHERAstar FS plate reader (BMG Labtech).

Compound | IC50 [nM]
O=C(O)C1(CN2CCC(CN[C@@H]3C[C@H]3c3ccccc3)(COCC3CCC3)CC2)CCC1 [Example 93, 1-{[4-[(cyclobutylmethoxy)methyl]-4-({[(1R,2S)-2-phenylcyclopropyl]amino}methyl)piperidin-1-yl]methyl}cyclobutanecarboxylic acid] | < 100
N#Cc1ccc(CN2CC(CN[C@@H]3C[C@H]3c3ccccc3)C2)cc1 (relative stereo) [Example 6, 4-[(3-{[(trans-2-Phenylcyclopropyl)amino]methyl}azetidin-1-yl)methyl]benzonitrile] | < 100
COCC1(CN[C@@H]2C[C@H]2c2ccccc2)CCN(C(=O)c2cnn(CCO)c2)CC1 [Example 103, 2-(4-{[4-(methoxymethyl)-4-({[(1R,2S)-2-phenylcyclopropyl]amino}methyl)piperidin-1-yl]carbonyl}-1H-pyrazol-1-yl)ethanol] | < 100
CC1(CN[C@@H]2C[C@H]2c2ccccc2)CCN(Cc2cnc(N)nc2)CC1 [Example 52, 5-{[4-methyl-4-({[(1R,2S)-2-phenylcyclopropyl]amino}methyl)piperidin-1-yl]methyl}pyrimidin-2-amine] | < 100
CCOCC1(CN[C@@H]2C[C@H]2c2ccccc2)CCN(CC2(C(=O)O)CCC2)CC1 [Example 71, 1-{[4-(ethoxymethyl)-4-({[(1R,2S)-2-phenylcyclopropyl]amino}methyl)piperidin-1-yl]methyl}cyclobutanecarboxylic acid] | < 100
COc1ccc(CC2(CN[C@@H]3C[C@H]3c3ccccc3)CCN(CC3(C(=O)O)CCC3)CC2)cc1 [Example 99, 1-{[4-(4-methoxybenzyl)-4-({[(1R,2S)-2-phenylcyclopropyl]amino}methyl)piperidin-1-yl]methyl}cyclobutanecarboxylic acid] | < 100
N#Cc1cccc(OCC2(CN[C@@H]3C[C@H]3c3ccccc3)CCN(CC3(C(=O)O)CC3)CC2)c1 [Example 80, 1-{[4-[(3-cyanophenoxy)methyl]-4-({[(1R,2S)-2-phenylcyclopropyl]amino}methyl)piperidin-1-yl]methyl}cyclopropanecarboxylic acid] | < 100
O=C(c1cccc(F)c1)N1CC(CN[C@@H]2C[C@H]2c2ccccc2)C1 (relative stereo) [Example 29, N-{[1-(3-Fluorobenzoyl)azetidin-3-yl]methyl}-trans-2-phenylcyclopropanamine] | < 100
N#CC1(c2ccccc2)CCN(C(=O)N2CC(CN[C@@H]3C[C@H]3c3ccccc3)C2)CC1 (relative stereo) [Example 16, 4-Phenyl-1-[(3-{[(trans-2-phenylcyclopropyl)amino]methyl}azetidin-1-yl)carbonyl]piperidine-4-carbonitrile] | < 100
O=C(Nc1ccc(F)cc1)N1CC(CN[C@@H]2C[C@H]2c2ccccc2)C1 (relative stereo) [Example 21, N-(4-Fluorophenyl)-3-{[(trans-2-phenylcyclopropyl)amino]methyl}azetidine-1-carboxamide] | < 100
N#Cc1ccc(C(=O)N2CC(CN[C@@H]3C[C@H]3c3ccccc3)C2)cc1 (relative stereo) [Example 25, 4-[(3-{[(trans-2-Phenylcyclopropyl)amino]methyl}azetidin-1-yl)carbonyl]benzonitrile] | < 100
N#CCC1(CN[C@@H]2C[C@H]2c2ccccc2)CCN(C(=O)c2cccc(F)c2)CC1 (relative stereo) [Example 8, (1-(3-Fluorobenzoyl)-4-{[(trans-2-phenylcyclopropyl)amino]methyl}piperidin-4-yl)acetonitrile] | < 100
N#Cc1cccc(CC2(CN[C@@H]3C[C@H]3c3ccccc3)CCN(CC3(C(=O)O)CC3)CC2)c1 [Example 56, 1-{[4-(3-cyanobenzyl)-4-({[(1R,2S)-2-phenylcyclopropyl]amino}methyl)piperidin-1-yl]methyl}cyclopropanecarboxylic acid] | < 100
N[C@H]1CC[C@H](C(=O)N2CCC(CN[C@@H]3C[C@H]3c3ccccc3)(Cc3ccc(F)cc3)CC2)CC1 [Example 33, trans-4-{[4-(4-fluorobenzyl)-4-({[(1R,2S)-2-phenylcyclopropyl]amino}methyl)piperidin-1-yl]carbonyl}cyclohexanamine] | < 100
O=C(N1CCC2(CC1)CNc1ccc(F)cc12)N1CC(CN[C@@H]2C[C@H]2c2ccccc2)C1 (relative stereo) [Example 18, N-({1-[(5-Fluoro-1,2-dihydro-spiro[indole-3,4′-piperidin]-1′-yl)carbonyl]azetidin-3-yl}methyl)-trans-2-phenylcyclopropanamine] | < 100
O=C(c1ccc(F)cc1)N1CC(CN[C@@H]2C[C@H]2c2ccccc2)C1 (relative stereo) [Example 28, N-{[1-(4-Fluorobenzoyl)azetidin-3-yl]methyl}-trans-2-phenylcyclopropanamine] | < 100
COCC1(CN[C@@H]2C[C@H]2c2ccccc2)CCN(C(=O)N2CCC(OC)CC2)CC1 [Example 113, (1R,2S)—N-({4-(methoxymethyl)-1-[(4-methoxypiperidin-1-yl)carbonyl]piperidin-4-yl}methyl)-2-phenylcyclopropanamine] | < 100

Compound | IC50 [nM]
CC1(CN[C@@H]2C[C@H]2c2ccccc2)CCN(CC2(C(=O)O)CCC2)CC1 [Example 45, 1-{[4-methyl-4-({[(1R,2S)-2-phenylcyclopropyl]amino}methyl)piperidin-1-yl]methyl}cyclobutanecarboxylic acid] | < 100
COCCn1cc(C(=O)N2CCC(CN[C@@H]3C[C@H]3c3ccccc3)(COC)CC2)cn1 [Example 104, (1R,2S)—N-{[1-{[1-(2-methoxyethyl)-1H-pyrazol-4-yl]carbonyl}-4-(methoxymethyl)piperidin-4-yl]methyl}-2-phenylcyclopropanamine] | < 100
COCC1(CN[C@@H]2C[C@H]2c2ccc(F)cc2)CCN(CC2(C(=O)O)CCC2)CC1 [Example 63, 1-{[4-({[(1R,2S)-2-(4-fluorophenyl)cyclopropyl]amino}methyl)-4-(methoxymethyl)piperidin-1-yl]methyl}cyclobutanecarboxylic acid] | < 100
NC1(C(=O)N2CCC(CN[C@@H]3C[C@H]3c3ccccc3)(Cc3ccc(F)cc3)CC2)CCC1 [Example 34, 1-{[4-(4-fluorobenzyl)-4-({[(1R,2S)-2-phenylcyclopropyl]amino}methyl)piperidin-1-yl]carbonyl}cyclobutanamine] | < 100
CC1(CN[C@@H]2C[C@H]2c2ccccc2)CCN(C(=O)c2cnc(N)nc2)CC1 [Example 48, 5-{[4-methyl-4-({[(1R,2S)-2-phenylcyclopropyl]amino}methyl)piperidin-1-yl]carbonyl}pyrimidin-2-amine] | < 100
O=C(Nc1ccccc1F)N1CC(CN[C@@H]2C[C@H]2c2ccccc2)C1 (relative stereo) [Example 19, N-(2-Fluorophenyl)-3-{[(trans-2-phenylcyclopropyl)amino]methyl}azetidine-1-carboxamide] | < 100
Fc1ccc(CN2CC(CN[C@@H]3C[C@H]3c3ccccc3)C2)cc1 (relative stereo) [Example 2, N-{[1-(4-Fluorobenzyl)azetidin-3-yl]methyl}-trans-2-phenylcyclopropanamine] | < 100
COCC1(C(C)N[C@@H]2C[C@H]2c2ccccc2)CCN(CC2(C(=O)O)CCC2)CC1 (stereo partly drawn) [Example 68, 1-{[4-(methoxymethyl)-4-(1-{[(1R,2S)-2-phenylcyclopropyl]amino}ethyl)piperidin-1-yl]methyl}cyclobutanecarboxylic acid] | < 100
Fc1ccc(CN2CCC(N[C@@H]3C[C@H]3c3ccccc3)CC2)cc1 (relative stereo) [Example 5, 1-(4-Fluorobenzyl)-N-(trans-2-phenylcyclopropyl)piperidin-4-amine] | < 100
COCC1(CN[C@@H]2C[C@H]2c2ccccc2)CCN(C(=O)N2CCC[C@H](O)C2)CC1 [Example 110, (3S)-1-{[4-(methoxymethyl)-4-({[(1R,2S)-2-phenylcyclopropyl]amino}methyl)piperidin-1-yl]carbonyl}piperidin-3-ol] | < 100
COCC1(CN[C@@H]2C[C@H]2c2ccccc2)CCN(C(=O)N2CC[C@H](O)C2)CC1 [Example 61, (3S)-1-{[4-(methoxymethyl)-4-({[(1R,2S)-2-phenylcyclopropyl]amino}methyl)piperidin-1-yl]carbonyl}pyrrolidin-3-ol] | < 100
Cn1ccc(C(=O)N2CCC(C)(CN[C@@H]3C[C@H]3c3ccccc3)CC2)n1 [Example 46, (1R,2S)—N-({4-methyl-1-[(1-methyl-1H-pyrazol-3-yl)carbonyl]piperidin-4-yl}methyl)-2-phenylcyclopropanamine] | < 100
N#Cc1cccc(CC2(CN[C@@H]3C[C@H]3c3ccccc3)CCN(CC3(C(=O)O)CCC3)CC2)c1 [Example 57, 1-{[4-(3-cyanobenzyl)-4-({[(1R,2S)-2-phenylcyclopropyl]amino}methyl)piperidin-1-yl]methyl}cyclobutanecarboxylic acid] | < 100
O=C(N1CC(CNC2CC2c2ccccc2)C1)N1CCCC(Oc2ccccc2)C1 (stereo not drawn) [Example 14, N-({1-[(3-Phenoxypiperidin-1-yl)carbonyl]azetidin-3-yl}methyl)-trans-2-phenylcyclopropanamine] | < 100
CCOCC1(CN[C@@H]2C[C@H]2c2ccccc2)CCN(CC2(C(=O)O)CC2)CC1 [Example 70, 1-{[4-(ethoxymethyl)-4-({[(1R,2S)-2-phenylcyclopropyl]amino}methyl)piperidin-1-yl]methyl}cyclopropanecarboxylic acid] | < 100
N#Cc1cccc(CC2(CN[C@@H]3C[C@H]3c3ccccc3)CCN(C[C@H]3CC[C@H](C(=O)O)CC3)CC2)c1 [Example 58, trans-4-{[4-(3-cyanobenzyl)-4-({[(1R,2S)-2-phenylcyclopropyl]amino}methyl)piperidin-1-yl]methyl}cyclohexanecarboxylic acid] | < 100
N#Cc1ccc(OCC2(CN[C@@H]3C[C@H]3c3ccccc3)CCN(CC3(C(=O)O)CCC3)CC2)c(F)c1 [Example 86, 1-{[4-[(4-cyano-2-fluorophenoxy)methyl]-4-({[(1R,2S)-2-phenylcyclopropyl]amino}methyl)piperidin-1-yl]methyl}cyclobutanecarboxylic acid] | < 100

— patent US9670210B2, “Cyclopropylamines as LSD1 inhibitors” (Incyte Corporation, priority 2014, dated 2017)
